The text below walks through data of patent US20230087609A1, “USE OF A SOLUBLE GUANYLATE CYCLASE (sGC) STIMULATOR OR OF A COMBINATION OF A sGC STIMULATOR AND AN sGC ACTIVATOR FOR CONDITIONS WHEREIN THE HEME GROUP OF sGC IS OXIDIZED OR WHEREIN sGC IS DEFICIENT IN HEME” (Universiteit Maastricht, priority 2020, published 2023).

Residue numbers refer to the chain shown, from its start. Entries after “also recorded” stand apart in the source; their conditions may differ.

Assay [1] has as its target T1, human sGCa1 and mutant sGCβ1H105F (apo-sGC) in Sf9 cells (Homo sapiens, UniProt Q02153, H105F).
T1 construct: His tag; expressed in transfected cells; host or cells: Sf9 cells co-infected with baculoviruses
T1 sequence (Q02153 1-619 H105F): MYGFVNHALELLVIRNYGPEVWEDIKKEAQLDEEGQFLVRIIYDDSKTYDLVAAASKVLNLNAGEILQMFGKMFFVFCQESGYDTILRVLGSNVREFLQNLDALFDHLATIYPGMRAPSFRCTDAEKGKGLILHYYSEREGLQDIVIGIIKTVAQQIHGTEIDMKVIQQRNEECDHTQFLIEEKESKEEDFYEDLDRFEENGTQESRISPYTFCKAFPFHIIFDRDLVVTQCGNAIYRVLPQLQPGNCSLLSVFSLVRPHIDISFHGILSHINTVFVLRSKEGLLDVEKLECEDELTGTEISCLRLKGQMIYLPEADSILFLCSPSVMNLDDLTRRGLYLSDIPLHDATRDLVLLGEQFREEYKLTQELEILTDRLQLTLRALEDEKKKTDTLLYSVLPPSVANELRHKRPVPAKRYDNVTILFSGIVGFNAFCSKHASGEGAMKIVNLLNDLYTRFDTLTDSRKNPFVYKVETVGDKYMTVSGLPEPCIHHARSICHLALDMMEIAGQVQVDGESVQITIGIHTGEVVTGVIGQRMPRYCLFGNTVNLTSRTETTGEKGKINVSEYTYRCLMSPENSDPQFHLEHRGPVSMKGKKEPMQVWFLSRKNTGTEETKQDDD
T1 sequence (Q02108 1-690 partner): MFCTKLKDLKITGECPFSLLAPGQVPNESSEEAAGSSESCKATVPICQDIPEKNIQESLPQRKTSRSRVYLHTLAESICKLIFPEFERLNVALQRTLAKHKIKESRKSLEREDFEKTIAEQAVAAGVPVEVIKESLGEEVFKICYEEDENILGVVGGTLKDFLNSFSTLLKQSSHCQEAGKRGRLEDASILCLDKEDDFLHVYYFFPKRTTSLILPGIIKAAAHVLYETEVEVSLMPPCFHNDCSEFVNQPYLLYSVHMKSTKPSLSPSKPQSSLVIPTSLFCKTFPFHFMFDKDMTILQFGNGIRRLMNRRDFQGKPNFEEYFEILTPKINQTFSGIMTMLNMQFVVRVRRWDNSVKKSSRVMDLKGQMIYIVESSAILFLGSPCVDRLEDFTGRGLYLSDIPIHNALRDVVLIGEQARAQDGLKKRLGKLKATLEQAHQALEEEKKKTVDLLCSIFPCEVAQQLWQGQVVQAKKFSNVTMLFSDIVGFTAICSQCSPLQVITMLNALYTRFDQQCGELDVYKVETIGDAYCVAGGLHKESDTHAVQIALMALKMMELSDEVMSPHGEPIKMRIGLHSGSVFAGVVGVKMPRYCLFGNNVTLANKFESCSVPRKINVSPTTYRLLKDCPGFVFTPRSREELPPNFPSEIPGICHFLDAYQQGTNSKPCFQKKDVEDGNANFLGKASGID
Nature of the assay: cGMP accumulation in intact Sf9 cells expressing apo-sGC. Format: cell-based. The note with it: for cGMP formation, sGC stimulator combined with NO donor: 30 micromole/L Bay 41-2272 + 10 micromole/L DETA-NONOate (FIG. 12A, B); for cGMP formation, sGC stimulator only: 30 micromole/L Bay 41-2272 alone (FIG. 12A). The procedure:
Sf9 cells were co-infected with baculoviruses expressing human sGCa1 and mutant sGCβ1H105F. Forty-eight hours post-infection, the cells were treated with vehicle, NO donor, sGC stimulator, sGC activator or combination in 2 ml final volume of 10^6 cells per ml then the cells were incubated for 10 min at 27° C. The reaction was terminated by the addition of 0.1M of HCl, and cGMP was extracted on ice for 20 min. Cells were then sonicated to ensure complete lysis. The extract was then centrifuged and used for cGMP determination by an ELISA (Enzo Life Sciences).
Forty-eight hours post-infection, the cells were treated with vehicle, NO donor, sGC stimulator, sGC activator or combination in 2 ml final volume of 10^6 cells per ml and subsequently, the cells were incubated for 10 minutes at 27° C. The reaction was terminated by the addition of 0.1M of HCl, and cGMP was extracted on ice for 20 minutes. Cells were then sonicated to ensure complete lysis. The obtained cell extract was then centrifuged and used for cGMP determination by an ELISA. […] In the absence of any of the NO donor, the sGCs or the combination of these compounds, no cGMP synthesis is detected. It is now for the first time shown by the inventors that apo-sGC is still activatable even in the absence of an sGC activator known in the art. The presence of the sGCs facilitates NO binding to a secondary, heme-independent NO binding-site, and in addition, presence of an NO donor acts synergistically, when cGMP production is considered. Due to the invention, it is now made possible to treat patients with an sGCs, resulting in cGMP formation, under conditions wherein treatment with sGC activators has no effect at all or a too small effect, e.g. under conditions of ischemia, neonatal asphyxia, stroke, hypoxia, acute respiratory distress syndrome, asthma, oxidative (organ and/or tissue and/or cell) damage, etc. The invention provides a new treatment modality for these patients, which are often not sensitive (enough) for sGCa treatment. […] C.

The target in assay [2] is T2, purified human sGC treated with ODQ (oxidized heme) (Homo sapiens, UniProt Q02153).
T2 construct: purchased EnzoLifeScience, Lörrach, Germany
T2 sequence (Q02153 1-619): T1 sequence (Q02153 1-619 H105F) with F105H
T2 sequence (Q02108 1-690 partner): T1 sequence (Q02108 1-690 partner)
The assay can be described thus: sGC activity of purified human sGC treated with ODQ. It is filed as biochemical. Conditions: 10 μM ODQ, 0.3 μM BAY 58-2667 ± 10 μM BAY 41-2272 (FIG. 7A); ODQ concentration series with 30 μM Bay 41-2272 (FIG. 7B).

Consider `Nc1nc(-c2nn(Cc3ccccc3F)c3ncccc23)ncc1C1CC1` [BAY 41-2272, 5-cyclopropyl-2-[1-(2-fluoro-benzyl)-1H-pyrazolo[3,4-b]pyridin-3-yl]-pyrimidin-4-ylamine], for which, in assay [1] (listed as Bay 41-2272), the “cGMP formation, sGC stimulator combined with NO donor” value was “synergistic increase in cGMP formation” and the “cGMP formation, sGC stimulator only” value is “increase in cGMP formation”. Moreover, in assay [1] (listed as Bay41-2272), the “cGMP formation, sGC stimulator combined with NO donor” value is reported as “more than double amount of cGMP; also recorded: synergistic increase in cGMP formation” and the “cGMP formation, sGC stimulator only” value is given as “resulted in cGMP production; also recorded: increase in cGMP formation”. The “sGC activity of sGC with fully oxidized heme on addition of sGC stimulator” value in assay [2] is “still activatable by potentiation”.
